The structures appear in SMILES notation. pIC50: −log10 of the molar value. Where only a bound is given, the exact number is not on record here.

A short description of data set [1]: Enzymatic hydrolysis (stability) in human liver S9 fractions. The format is in vitro ADME. To be noted: 100 μM compound, human liver S9 0.166 mg/ml, phosphate buffer pH 7.4, active S9 fractions. The procedure:
Enzymes of the nasal cavity are not easily available, but the nasal cavity contains similar enzymatic activities as found in the liver, namely carboxylesterases (J. L. Lewis, K. J. Nikula, R. Novak, A. R. Dahl, Anat Rec 1994, 239). Therefore the different compounds of examples 1-3 were compared for enzymatic hydrolysis using human liver […]. Chemicals were dissolved to a final concentration of 100 μM in a total volume of 600 μl of phosphate buffer (100 mM, pH 7.4, containing 1.15% potassium chloride and 1 mM of EDTA). S9 fractions from humans at a final level of 0.166 mg/ml were added (Corning® Gentest™ Human Liver S9 Pooled Donors, 20 mg/mL protein content, Product #452961;), Lot 22877,). As control experiment, equal levels of heat inactivated S9 fractions (incubated for 10 min at 99° C.) were added to parallel samples. The samples were incubated for different time periods and then mixed in 2 ml glass vials with 300 μl of Methyl-tert-butylether (MTBE) containing as internal standard 1 ppm of dodecane. Samples were extracted on a vortex mixer for 20 s, and then ca. 200 μl of the supernatant was transferred to conical GC vials and concentrated under a stream of nitrogen. 1 μl of these concentrated extracts were then injected with a splitless injection into an Agilent GC 6890N gas chromatograph equipped with a flame-ionisation detector. The following GC conditions were applied: Column: Rtx −5; 30 m length×0.32 mm internal diameter×0.25 μm film thickness; Carrier gas: Hydrogen; Column flow: 2 mL; Initial temperature of 60° C. held for 2 min, subsequent linear gradient with 10° C. per minute up to a temperature of 240° C. […] To determine calibration curves, dilutions of the test chemicals or of the potentially released alcohols were added to heat inactivated S9 fraction and extracted, concentrated and analysed as described above. All concentrations (in test samples and calibration curves) were determined by normalization to the internal standard. […]

Data set [2] concerns KeratinoSens cell line (Luciferase gene under the control of the ARE-element of the gene AKR1C2). The data set can be described thus: KeratinoSens assay for skin sensitization: luciferase gene induction. The data set is classed as cell-based. To be noted: for Concentration for 1.5-fold gene induction (EC 1.5 in μM) / Imax (fold maximal gene induction): 48 h incubation, 0.98 to 2000 μM; for Imax (fold maximal gene induction): threshold 1.5-fold; for rating of skin sensitization by the KeratinoSens assay: result in words. The procedure: Compounds were tested using the commercial KeratinoSens™ assay for skin sensitization.
(§1) The KeratinoSens™ test compares the potential skin sensitization risk of chemicals. The KeratinoSens™ cell line contains a stable insertion of a Luciferase gene under the control of the ARE-element of the gene AKR1C2 and induction of luciferase is indicative of skin sensitization potential (R. Emter, G. Ellis, A. Natsch, Toxicol. Appl. Pharmacol. 2010, 245, 281-290). The assay was performed as described by the OECD test guideline 442d. KeratinoSens cells were grown for 24 h in 96-well plates. The medium was then replaced with medium containing the test chemical and the solvent dimethylsulfoxide (DMSO) at a final level of 1%. Each compound was tested at 12 binary dilutions in the range from 0.98 to 2000 μM. Cells were incubated for 48 h with the test agents, and then luciferase activity and cytotoxicity were determined. This full procedure was repeated three times for each chemical. For each chemical in each repetition and at each concentration, the gene induction compared to DMSO controls and the wells with statistically significant induction over the threshold of 1.5 (i.e. 50% enhanced gene activity) were determined. Furthermore, the maximal fold-induction (Imax) and the EC1.5 value (concentration in μM for induction above the threshold) were calculated. Chemicals are rated as positive (i.e. likely skin-sensitizers) in the assay if the following three criteria are fulfilled:
(i) EC1.5 value is below 1000 μM.
(ii) At the lowest concentration with a gene induction above 1.5 fold, the cellular viability is above 70%.
(iii) There is an apparent overall dose-response for luciferase induction, which is similar between the repetitions.

Data set [3] is described as follows: KeratinoSens assay: cytotoxicity / cellular viability. To be noted: human; 48 h incubation; read-out: Concentration for 50% Cytotoxicity. The format is cell-based. The procedure: as §1, with “fulfilled: […]” for “fulfilled:”
For data set [4], the system named is test peptide Cor1C-420 (Ac-NKKCDLF). The data set can be described thus: Peptide reactivity assay (kinetic variant of DPRA, LC-MS). To be noted: 1 mM test chemical, 0.1 mM peptide, 37° C. How it is done: A second method to determine allergenic potential of chemicals is the DPRA direct peptide assay (OECD TG 442c). It is based on the fact that allergenic chemicals must react with a peptide/protein in order to be immunogenic.
A peptide reactivity assay (A. Natsch, H. Gfeller, Toxicol. Sci. 2008, 106, 464-478) was conducted similarly to the DPRA assay, but including a kinetic measurement to quantify reactivity: The test chemicals were dissolved to a final concentration of 4 mM in acetonitrile and 250 μl of this solution were added to 2 ml HPLC vials. The test peptide Cor1C-420 with the sequence Ac-NKKCDLF (Genscript Inc., Piscataway, N.J., USA), was dissolved at 0.133 mM in 20 mM phosphate buffer at pH 7.5, and 750 μl of this solution were added to each test vial (final concentrations: 1 mM of test chemical and 0.1 mM of peptide in 25% acetonitrile; ratio 1:10 as in the DPRA assay). The samples were incubated for 1-24 h at 37° C. and at regular intervals they were analysed by LC-MS analysis on a VELOS PRO Mass spectrometer (Thermo SCIENTIFIC, San Jose, Calif., U.S.A.) operated in the ESI(+) mode.
Mass spectra were recorded from 200-2000 amu. […]
Two endpoints are measured with this assay:
a) Depletion of the parent peptide (FIG. 3): The mass of the protonated parent peptide is measured and the corresponding peak integrated (% depletion). […]

Another data set relates to KeratinoSens cells. The data set can be described thus: KeratinoSens assay: cytotoxicity / cellular viability. The format is cell-based. To be noted: 48 h incubation; read-out: Concentration for 50% Cytotoxicity. How it is done:
as §1, with “fulfilled: […]” for “fulfilled:”

Take `C/C=C/C(=O)OC1[C@H](C)CCC[C@H]1C` (relative stereo) [Example 2, (2R*,6R*)-2,6-dimethylcyclohexyl (E)-but-2-enoate]: in data set [1], the “cleavage (enzymatic hydrolysis of the ester) by active S9 fractions” value (“cleavage … by active S9 fractions” below) is reported as “completely hydrolysed”.

Turning to `C/C=C/C(=O)O[C@H]1[C@@H](C)C=CCC1(C)C` (relative stereo) [Example 6a, (1S*,2S*)-2,6,6-Trimethylcyclohex-3-en-1-yl (E)-but-2-enoate], in data set [2], the “Concentration for 1.5-fold gene induction (EC 1.5 in μM)” value is on record as “No induction” and the “Imax (fold maximal gene induction)” value is recorded as 1.13 fold. Further, in data set [3], the IC50 at 48 h stood at 89.4 µM.

In the case of `C/C=C/C(=O)O[C@@H]1[C@H](C)CCC[C@@H]1C` [Example 1, (1s*,2R*,6S*)-2,6-dimethylcyclohexyl (E)-but-2-enoate], in data set [2], the “Concentration for 1.5-fold gene induction (EC 1.5 in μM)” value is reported as “No induction” and the “rating of skin sensitization by the KeratinoSens assay” value is on record as “non-sensitizing”. The IC50 at 48 h in data set [3] is 86.9 µM. In data set [4] (1-24 h), the “peptide depletion (consumption of the parent peptide as compared to controls)” value was under 10%. In addition, the “lower levels of peptide adducts as compared to Damascone Delta and Damascone gamma” value in data set [4] (after 1 h) is given as over 100. Besides, in data set [1], the “cleavage … by active S9 fractions” value is reported as under 3%.

Regarding `C/C=C/C(=O)O[C@H]1[C@H](C)CCC[C@@H]1C` [Example 3, (1r*,2R*,6S*)-2,6-dimethylcyclohexyl (E)-but-2-enoate], the “cleavage … by active S9 fractions” value in data set [1] amounted to 15%.

As for `C/C=C/C(=O)C1=C(C)CCCC1(C)C` [β-Damascone, (2E)-1-(2′,6′,6′-trimethylcyclohex-1′-en-1′-yl)but-2-en-1-one, reference compound], in data set [2], the “concentration at which the luciferase gene is induced” value is 4.5 µM, the “Concentration for 1.5-fold gene induction (EC 1.5 in μM)” value amounted to 4.5 µM, the “Imax (fold maximal gene induction)” value came to 29.8 fold and the “rating of skin sensitization by the KeratinoSens assay” value is recorded as “significantly sensitizing compound”. In the data set with KeratinoSens cells, the pIC50 was 4.25.

The record behind these values is patent US10343971B2, “Crotonates having use in perfumery” (GIVAUDAN SA, priority 2016, dated 2019).
